Source: patent US4018895A, “Aryloxyphenylpropylamines in treating depression” (Eli Lilly and Company, priority 1975, dated 1977)

Columns and labels:
[1] = test system: QRS complex of the electrocardiogram; assay: Electrocardiogram in anesthetized cats after intravenous injection; details: in words
[2] = test system: hypothermia induced by the injection of reserpine; assay: Reserpine hypothermia reversal test; format: in vivo, mice; details: for Activity in reversal of reserpine hypothermia: in words; for inhibition in vivo at 1 mg/kg / inhibition in vivo at 3 mg/kg / inhibition in vivo at 10 mg/kg: Mus musculus, ip, 1 h, Table 5, dimethylamino compounds, Post-60 min., mice, read-out: Percent Antagonism Reserpine; for inhibition in vivo at 1 mg/kg: 1 mg./kg. intraperitoneally; for inhibition in vivo at 3 mg/kg: 3 mg./kg. intraperitoneally; for inhibition in vivo at 10 mg/kg: 10 mg./kg. intraperitoneally
Description: (§1) The apomorphine hypothermia antagonism test is carried out as follows: mice are injected with a dose of apomorphine known to reduce body temperature approximately 4° C. The compound under test is injected 1/2 hour before the injection of the apomorphine and the temperatures measured 1/2 hour after injection. The degree of antagonism is expressed as a percent reduction (as compared with controls) of the temperature decrease produced by the injection of the apomorphine. The reserpine hypothermia reversal test is carried out as follows: groups of mice are injected with reserpine and 16.5 hours later are injected intraperitoneally with graded doses of the drug, a different dose level being given to each group of mice. Temperatures are measured at 1 hour after injection of the drug under test and again the effectiveness of the drug is expressed as a percentage decrease in the hypothermia induced by the injection of reserpine as compared with the control group. In the tablets which follow, Table 4 gives the results in the apomorphine antagonism and reserpine reversal hypothermia tests for the secondary amines of this invention. In the table, the first column gives the substituent attached to the oxygen atom at the 3 position of the propylamine chain; columns 2 to 4 the percent antagonism against apomorphine hypothermia at dose levels of 0.3, 1 and 3 mg./kg. and columns 5-7 the percent reversal of reserpine hypothermia at the same dose levels.

[3] = test system: hypothermia induced by the injection of apomorphine; assay: Apomorphine hypothermia antagonism test; format: in vivo, mice; details: for Reduction of apomorphine hypothermia: 10 mg./kg. dose, measured 60 minutes after injection of the apomorphine; for Activity in antagonism of apomorphine hypothermia: in words
Description: as §1, with “The compound under test is injected 1/2 hour before the injection of the apomorphine and the temperatures measured 1/2 hour after injection.” left out

brain serotonin = assay: Prevention of brain serotonin depletion caused by 4-chloroamphetamine; format: in vivo; details: rats injected with 4-chloroamphetamine; drug 15 mg./kg. intraperitoneally; 4 hours later
Description: Following this injection, the protecting drug was injected at a dose of 15 mg./kg. of rat-weight intraperitoneally and determinations of brain serotonin levels were carried out 4 hours later.

[4] = test system: response rates of pigeons; assay: Operant behavior, fixed-ratio, fixed interval schedule; format: in vivo
Description: In manifesting their psychotropic action, the compounds of this invention also affect the behavior of animals trained in a variety of operant behavior schedules. Again, the activity of compounds of this invention in this type of test parallels that of known antidepressant drugs, particularly desmethylimipramine. […] With pigeons trained under an adjusting ratio schedule, the drugs of this invention affect behavior in the same way as does the marketed antidepressant, desmethylimipramine (DMI). […] The above results are consistent with antidepressant action.

[5] = test system: antihistaminic effect, isolated muscle strips; assay: Antihistaminic effect in isolated muscle strips
[6] = test system: antiserotonin effect, isolated muscle strips; assay: Antiserotonin effect in isolated muscle strips
[7] = test system: anticholinergic effect, isolated muscle strips; assay: Anticholinergic effect in isolated muscle strips
[8] = test system: norepinephrine uptake by synaptosomes from rat brain; assay: In vitro blockade of norepinephrine uptake by synaptosomes from rat brain; format: biochemical; details: Table 1, scaffold drawing 3; norepinephrine 0.48 μM
Description: (§2) This blockade is shown both in vitro with radioactive labelled compounds to determine the amount of monoamine uptake by synaptosomes from rat brain, and in vivo by a variety of methods. Among the physiologically active monoamines whose uptake is blocked by the compounds of this invention are included serotonin, norepinephrine and dopamine (3,4-dihydroxyphenylethylamine). […] Tables 1 and 2 which follow set forth the results of some of the in vitro determinations of the blockage of monoamine uptake by the compounds of this invention. In the tables, column 1 gives the R substituent on the 3-phenylpropylamine and columns 2-4, the concentration in micrograms per ml. that blocks the uptake of a particular amine by 50 percent for the amines--norephinephrine, serotonin, and dopamine. At the head of each column is given the concentration of the particular monoamine used in the experiment.

[9] = test system: serotonin uptake by synaptosomes from rat brain; assay: In vitro blockade of serotonin uptake by synaptosomes from rat brain; format: biochemical; details: Table 1, scaffold drawing 3; serotonin 0.1 μM
Description: as §2

[10] = test system: dopamine uptake by synaptosomes from rat brain; assay: In vitro blockade of dopamine uptake by synaptosomes from rat brain; format: biochemical; details: Table 1, scaffold drawing 3; dopamine 0.2 μM
Description: as §2

[11] = Mus musculus, Table 5, dimethylamino compounds, Pre-30 min., mice, read-out: Percent Antagonism Apomorphine

COc1ccccc1OC(CCN)c1ccccc1 (stereo not drawn) [3-(o-Methoxyphenoxy)-3-phenylpropylamine, 3-(o-methoxyphenoxy)-3-phenylpropylamine]
Effect on the electrocardiogram (widening of the QRS complex) [1]: affects the electrocardiogram similarly, but at far higher doses

CN(C)CCC=C1c2ccccc2CCc2ccccc21 [amitriptyline, reference compound]
Effect on the electrocardiogram (widening of the QRS complex) [1]: causes a widening of the QRS complex of the electrocardiogram
Activity in reversal of reserpine hypothermia [2]: active
Reduction of apomorphine hypothermia [3]: 100%
Activity in antagonism of apomorphine hypothermia [3]: active

CN(C)CCCN1c2ccccc2CCc2ccc(Cl)cc21 [chloroimipramine]
Brain serotonin level (brain serotonin): 0.45 ± .03 µg/g

CNCCCN1c2ccccc2CCc2ccccc21 [desmethylimipramine]
Response rates in fixed-ratio, fixed interval schedule ([4]; in words): A similar effect
Potency as antihistaminic agent relative to N-methyl 3-(o-methoxyphenoxy)-3-phenylpropylamine [5]: 150 times
Potency as antiserotonin agent relative to N-methyl 3-(o-methoxyphenoxy)-3-phenylpropylamine [6]: three
Potency as anticholinergic agent relative to N-methyl 3-(o-methoxyphenoxy)-3-phenylpropylamine [7]: 150 times
Activity in reversal of reserpine hypothermia [2]: active
Brain serotonin level (brain serotonin): 0.44 ± .03 µg/g
Activity in antagonism of apomorphine hypothermia [3]: active

CNCCC(Oc1ccccc1OC)c1ccccc1.Cl (stereo not drawn) [o-anisyl, N-methyl 3-(o-methoxyphenoxy)-3-phenylpropylamine hydrochloride]
Persistence of the effect on response rates [4]: more than 24 hours
Reduction of apomorphine hypothermia [3]: 100%

CNCCC(Oc1ccc(C(F)(F)F)cc1)c1ccccc1 (stereo not drawn) [p-trifluoromethylphenyl, N-methyl 3-(p-trifluoromethylphenoxy)-3-phenylpropylamine]
Brain serotonin level (brain serotonin): 0.69 ± .02 µg/g

CN(C)CCC(Oc1ccccc1)c1ccccc1 (stereo not drawn) [phenyl]
Concentration that blocks 50% of amine uptake, Norepinephrine [8]: 1 mcq./ml.
Concentration that blocks 50% of amine uptake, Serotonin [9]: .6 mcq./ml.
Concentration that blocks 50% of amine uptake, Dopamine [10]: .3 mcq./ml.
inhibition in vivo at 1 mg/kg [2]: 20%
inhibition in vivo at 3 mg/kg [2]: 20%
inhibition in vivo at 10 mg/kg [2]: 49%
inhibition in vivo at 3 mg/kg [3, 11]: 3%
inhibition in vivo at 10 mg/kg [3, 11]: 54%

CN(C)CCC(Oc1cccc2ccccc12)c1ccccc1.O=C(O)/C=C\C(=O)O (stereo not drawn) [α-naphthyl, N,N-dimethyl 3-(α-naphthyloxy)-3-phenylpropylamine maleate]
Concentration that blocks 50% of amine uptake, Norepinephrine [8]: 3 mcq./ml.
Concentration that blocks 50% of amine uptake, Serotonin [9]: .03 mcq./ml.
Concentration that blocks 50% of amine uptake, Dopamine [10]: 2.5 mcq./ml.
inhibition in vivo at 1 mg/kg [2]: 15%
inhibition in vivo at 3 mg/kg [2]: 4%
inhibition in vivo at 10 mg/kg [2]: 15%
inhibition in vivo at 1 mg/kg ([3]; Mus musculus, Table 5, dimethylamino compounds, 1 mg./kg., Pre-30 min., mice, read-out: Percent Antagonism Apomorphine): -17%
inhibition in vivo at 3 mg/kg [3, 11]: -10%
inhibition in vivo at 10 mg/kg [3, 11]: -7%
